Results: PubChem BioAssay AID1963967 (Molecular Pharmacology Branch, DTP, NCI, 2024)

System: 855422-203-R-J1-PDC spheroids with HUVEC/MSC, viability
Assay: Anticancer human tumor 855422-203-R-J1-PDC patient-derived bladder carcinoma cell line growth inhibition [PI3K]
Details: for viability, T/C: stronger effect = lower value
Summary of the method: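 Agents were dosed from a top concentration near clinical Cmax (otherwise 10 microM) in half-log decrements, alone or combined with PI3K inhibitors. The spheroids contain tumor cells plus endothelial (HUVEC) and MSC stroma; viability is measured.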

[1] = curve of first compound, second compound 0.0316 µM
[2] = curve of first compound, second compound 0.1 µM
[3] = curve of first compound, second compound 0.316 µM
[4] = curve of first compound, second compound 1 µM
[5] = curve of first compound, second compound 0.00316 µM
[6] = curve of first compound, second compound 0.01 µM
[7] = second compound 0.00316 µM, first compound 0.000316 µM
[8] = second compound 0.00316 µM, first compound 0.001 µM
[9] = second compound 0.00316 µM, first compound 0.00316 µM
[10] = second compound 0.00316 µM, first compound 0.01 µM
[11] = second compound 0.00316 µM, first compound 0.0316 µM
[12] = second compound 0.00316 µM, first compound 0.1 µM
[13] = second compound 0.01 µM, first compound 0.000316 µM
[14] = second compound 0.01 µM, first compound 0.001 µM
[15] = second compound 0.01 µM, first compound 0.00316 µM
[16] = second compound 0.01 µM, first compound 0.01 µM
[17] = second compound 0.01 µM, first compound 0.0316 µM
[18] = second compound 0.01 µM, first compound 0.1 µM
[19] = second compound 0.0316 µM, first compound 0.000316 µM
[20] = second compound 0.0316 µM, first compound 0.001 µM
[21] = second compound 0.0316 µM, first compound 0.00316 µM
[22] = second compound 0.0316 µM, first compound 0.01 µM
[23] = second compound 0.0316 µM, first compound 0.0316 µM
[24] = second compound 0.0316 µM, first compound 0.1 µM
[25] = second compound 0.1 µM, first compound 0.000316 µM
[26] = second compound 0.1 µM, first compound 0.001 µM
[27] = second compound 0.1 µM, first compound 0.00316 µM
[28] = second compound 0.1 µM, first compound 0.01 µM
[29] = second compound 0.1 µM, first compound 0.0316 µM
[30] = second compound 0.1 µM, first compound 0.1 µM
[31] = second compound 0.316 µM, first compound 0.000316 µM
[32] = second compound 0.316 µM, first compound 0.001 µM
[33] = second compound 0.316 µM, first compound 0.00316 µM
[34] = second compound 0.316 µM, first compound 0.01 µM
[35] = second compound 0.316 µM, first compound 0.0316 µM
[36] = second compound 0.316 µM, first compound 0.1 µM
[37] = second compound 1 µM, first compound 0.000316 µM
[38] = second compound 1 µM, first compound 0.001 µM
[39] = second compound 1 µM, first compound 0.00316 µM
[40] = second compound 1 µM, first compound 0.01 µM
[41] = second compound 1 µM, first compound 0.0316 µM
[42] = second compound 1 µM, first compound 0.1 µM
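Note: agents incubated with spheroids for one week before read-out.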
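Throughout, for viability, T/C: 100% = DMSO vehicle-treated control wells.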

Q: Which IC50 [1] does the source give for Cn1cnc2c(F)c(Nc3ccc(Br)cc3Cl)c(C(=O)NOCCO)cc21 + Cc1nc(NC(=O)N2CCCC2C(N)=O)sc1-c1ccnc(C(C)(C)C(F)(F)F)c1 here?
A: 2250 nM

Q: And the IC50 [2]?
A: 2580 nM

Q: What about the IC50 [3] of the same compound?
A: 1350 nM

Q: And the IC50 [4]?
A: 111 nM

Q: What about the IC50 (curve of first compound, second compound 3.16 µM) of the same compound?
A: < 9.49 nM

Q: And the IC50 (curve of first compound, second compound 10 µM)?
A: < 9.49 nM

Q: What about the viability, T/C (second compound 0.0316 µM, first compound 0.00949 µM) of the same compound?
A: 94%

Q: What about the viability, T/C (second compound 0.0316 µM, first compound 0.03 µM) of the same compound?
A: 79.5%

Q: What about the viability, T/C (second compound 0.0316 µM, first compound 0.0949 µM) of the same compound?
A: 116%

Q: What about the viability, T/C (second compound 0.0316 µM, first compound 0.3 µM) of the same compound?
A: 90.4%

Q: And the viability, T/C (second compound 0.0316 µM, first compound 0.949 µM)?
A: 82.1%

Q: What about the viability, T/C (second compound 0.0316 µM, first compound 3 µM) of the same compound?
A: 39.2%

Q: What about the viability, T/C (second compound 0.1 µM, first compound 0.00949 µM) of the same compound?
A: 96.6%

Q: What about the viability, T/C (second compound 0.1 µM, first compound 0.03 µM) of the same compound?
A: 92.9%

Q: And the viability, T/C (second compound 0.1 µM, first compound 0.0949 µM)?
A: 89.8%

Q: And the viability, T/C (second compound 0.1 µM, first compound 0.3 µM)?
A: 82.1%

Q: And the viability, T/C (second compound 0.1 µM, first compound 0.949 µM)?
A: 79.4%

Q: And the viability, T/C (second compound 0.1 µM, first compound 3 µM)?
A: 45.1%

Q: And the viability, T/C (second compound 0.316 µM, first compound 0.00949 µM)?
A: 85.9%

Q: What about the viability, T/C (second compound 0.316 µM, first compound 0.03 µM) of the same compound?
A: 78%

Q: And the viability, T/C (second compound 0.316 µM, first compound 0.0949 µM)?
A: 89.9%

Q: What about the viability, T/C (second compound 0.316 µM, first compound 0.3 µM) of the same compound?
A: 75.7%

Q: And the viability, T/C (second compound 0.316 µM, first compound 0.949 µM)?
A: 61.6%

Q: What about the viability, T/C (second compound 0.316 µM, first compound 3 µM) of the same compound?
A: 25%

Q: What about the viability, T/C (second compound 1 µM, first compound 0.00949 µM) of the same compound?
A: 53.1%

Q: And the viability, T/C (second compound 1 µM, first compound 0.03 µM)?
A: 59.4%

Q: And the viability, T/C (second compound 1 µM, first compound 0.0949 µM)?
A: 45.1%

Q: What about the viability, T/C (second compound 1 µM, first compound 0.3 µM) of the same compound?
A: 44.3%

Q: What about the viability, T/C (second compound 1 µM, first compound 0.949 µM) of the same compound?
A: 36.2%

Q: And the viability, T/C (second compound 1 µM, first compound 3 µM)?
A: 10.2%

Q: What about the viability, T/C (second compound 3.16 µM, first compound 0.00949 µM) of the same compound?
A: 33.7%

Q: What about the viability, T/C (second compound 3.16 µM, first compound 0.03 µM) of the same compound?
A: 32.9%

Q: What about the viability, T/C (second compound 3.16 µM, first compound 0.0949 µM) of the same compound?
A: 21.7%

Q: What about the viability, T/C (second compound 3.16 µM, first compound 0.3 µM) of the same compound?
A: 21.2%

Q: And the viability, T/C (second compound 3.16 µM, first compound 0.949 µM)?
A: 16%

Q: What about the viability, T/C (second compound 3.16 µM, first compound 3 µM) of the same compound?
A: 6%

Q: What about the viability, T/C (second compound 10 µM, first compound 0.00949 µM) of the same compound?
A: 22.9%

Q: And the viability, T/C (second compound 10 µM, first compound 0.03 µM)?
A: 11.8%

Q: And the viability, T/C (second compound 10 µM, first compound 0.0949 µM)?
A: 12.7%

Q: What about the viability, T/C (second compound 10 µM, first compound 0.3 µM) of the same compound?
A: 8.91%

Q: What about the viability, T/C (second compound 10 µM, first compound 0.949 µM) of the same compound?
A: 5.5%

Q: What about the viability, T/C (second compound 10 µM, first compound 3 µM) of the same compound?
A: 1.88%

Q: Which viability, T/C (compound 0.0316 µM) does the source give for Cc1nc(NC(=O)N2CCCC2C(N)=O)sc1-c1ccnc(C(C)(C)C(F)(F)F)c1 (stereo unspecified) here?
A: 107% [middle of 8 runs]

Q: And the viability, T/C (compound 1 µM)?
A: 75.8% [middle of 8 runs]

Q: And the viability, T/C (compound 3.16 µM)?
A: 43% [middle of 8 runs]

Q: And the viability, T/C (compound 10 µM)?
A: 22.2% [middle of 8 runs]

Q: And the IC50 (compound alone, run of 05/08/2023)?
A: 2.53 µM [middle of 8 runs]

Q: Which IC50 [5] does the source give for Cn1ncnc1[C@H]1c2n[nH]c(=O)c3cc(F)cc(c23)N[C@@H]1c1ccc(F)cc1 + COc1c(OCCCN2CCOCC2)ccc2c3n(c(=NC(=O)c4cnc(N)nc4)nc12)CCN3 here?
A: > 100 nM

Q: And the IC50 [6]?
A: > 100 nM

Q: And the IC50 [1]?
A: > 100 nM

Q: And the IC50 [2]?
A: < 0.316 nM

Q: What about the IC50 [3] of the same compound?
A: < 0.316 nM

Q: What about the IC50 [4] of the same compound?
A: < 0.316 nM

Q: And the viability, T/C [7]?
A: 97.2%

Q: And the viability, T/C [8]?
A: 98%

Q: What about the viability, T/C [9] of the same compound?
A: 98.6%

Q: What about the viability, T/C [10] of the same compound?
A: 90.5%

Q: What about the viability, T/C [11] of the same compound?
A: 90.8%

Q: What about the viability, T/C [12] of the same compound?
A: 91.7%

Q: And the viability, T/C [13]?
A: 88.8%

Q: And the viability, T/C [14]?
A: 80.7%

Q: What about the viability, T/C [15] of the same compound?
A: 78%

Q: And the viability, T/C [16]?
A: 97.2%

Q: What about the viability, T/C [17] of the same compound?
A: 94.6%

Q: What about the viability, T/C [18] of the same compound?
A: 92.2%

Q: What about the viability, T/C [19] of the same compound?
A: 65.5%

Q: What about the viability, T/C [20] of the same compound?
A: 62.2%

Q: And the viability, T/C [21]?
A: 62.2%

Q: And the viability, T/C [22]?
A: 52.7%

Q: And the viability, T/C [23]?
A: 52.7%

Q: And the viability, T/C [24]?
A: 53.1%

Q: And the viability, T/C [25]?
A: 24.2%

Q: And the viability, T/C [26]?
A: 25.9%

Q: What about the viability, T/C [27] of the same compound?
A: 29.1%

Q: What about the viability, T/C [28] of the same compound?
A: 27.5%

Q: What about the viability, T/C [29] of the same compound?
A: 22.9%

Q: What about the viability, T/C [30] of the same compound?
A: 24.5%

Q: What about the viability, T/C [31] of the same compound?
A: 9.77%

Q: And the viability, T/C [32]?
A: 8.64%

Q: What about the viability, T/C [33] of the same compound?
A: 8.11%

Q: And the viability, T/C [34]?
A: 8.04%

Q: And the viability, T/C [35]?
A: 7.3%

Q: And the viability, T/C [36]?
A: 8.75%

Q: And the viability, T/C [37]?
A: 4.95%

Q: What about the viability, T/C [38] of the same compound?
A: 3.74%

Q: What about the viability, T/C [39] of the same compound?
A: 3.02%

Q: And the viability, T/C [40]?
A: 3.29%

Q: And the viability, T/C [41]?
A: 4.31%

Q: What about the viability, T/C [42] of the same compound?
A: 3.2%

Q: What does the source list for CC(=O)c1c(C)c2cnc(Nc3ccc(N4CCNCC4)cn3)nc2n(C2CCCC2)c1=O + CC(Nc1ccc2c(c1)OCCn1cc(N3C(=O)OCC3C(F)F)nc1-2)C(N)=O?
A: IC50 [5]: > 100 nM; IC50 [6]: > 100 nM; IC50 [1]: > 100 nM; IC50 [2]: 75.5 nM; IC50 [3]: 10.6 nM; IC50 [4]: < 0.316 nM; viability, T/C [7]: 110%; viability, T/C [8]: 88.9%; viability, T/C [9]: 109%; viability, T/C [10]: 84.1%; viability, T/C [11]: 97.6%; viability, T/C [12]: 74.2%; viability, T/C [13]: 99%; viability, T/C [14]: 87%; viability, T/C [15]: 98.3%; viability, T/C [16]: 86%; viability, T/C [17]: 98%; viability, T/C [18]: 75.8%; viability, T/C [19]: 84.1%; viability, T/C [20]: 84%; viability, T/C [21]: 86.3%; viability, T/C [22]: 85.1%; viability, T/C [23]: 83.5%; viability, T/C [24]: 60.8%; viability, T/C [25]: 72.1%; viability, T/C [26]: 78.4%; viability, T/C [27]: 62.1%; viability, T/C [28]: 73.7%; viability, T/C [29]: 72%; viability, T/C [30]: 43.2%; viability, T/C [31]: 54.2%; viability, T/C [32]: 51.3%; viability, T/C [33]: 57.4%; viability, T/C [34]: 47.9%; viability, T/C [35]: 44.4%; viability, T/C [36]: 29.9%; viability, T/C [37]: 37%; viability, T/C [38]: 36%; viability, T/C [39]: 31.9%; viability, T/C [40]: 30.6%; viability, T/C [41]: 31.2%; viability, T/C [42]: 15.4%
